Assay [1] has as its system human acute myelogenous leukemia KG-1a cells. As to the kind of experiment: KG-1a subcutaneous xenograft in NOD/SCID mice. It is filed as in vivo. Conditions: for Tumor weight: KG-1a, individual mice, end of experiment. The procedure: (§1) 7-week old female NOD/SCID mice were taken and inoculated subcutaneously with 1×10^7 cells (0.2 ml) per mouse in axilla, with human acute myelogenous leukemia KG-1a cells on the left and human acute monocytic leukemia THP-1 cells on the right. When tumors grew to a tumor size of around 0.5 cm, the mice were randomized into groups with 3 mice each. An equivalent amount of PBS was used for the control group, and the 14-D-Valine-TPL group was divided into two groups with 0.2 mg/kg body weight and 0.4 mg/kg body weight: intragastric administration 2 times a day (one at 8 a.m. and one at 4 p.m.) for consecutive 14 days of treatment. An observation was made for total 30 days, during which the conditions of the mice such as tumor size, weight, activity, diet, and the like were measured. At the end of the experiment, the mice were sacrificed, tumor tissues were taken and the tumors were weighed, and major organs and tissues of the mice such as liver, spleen, heart, lung, large intestine, small intestine, and the like were examined.
as §1, with “the left.” for “the left and human acute monocytic leukemia THP-1 cells on the right.”, “around 50-100 mm^3,” for “around 0.5 cm,”, “the TPL-LLV” for “the 14-D-Valine-TPL”, “with 0.23” for “with 0.2”, “and 0.46” for “and 0.4”, “intragastric administration,” for “intragastric administration”
as §1, with “the left.” for “the left and human acute monocytic leukemia THP-1 cells on the right.”, “around 50-100 mm^3,” for “around 0.5 cm,”, “the TPL-DLV” for “the 14-D-Valine-TPL”, “with 0.23” for “with 0.2”, “and 0.46” for “and 0.4”, “intragastric administration,” for “intragastric administration”
as §1, with “the left.” for “the left and human acute monocytic leukemia THP-1 cells on the right.”, “around 50-100 mm^3,” for “around 0.5 cm,”, “the TPL-DLV” for “the 14-D-Valine-TPL”, “with 0.32” for “with 0.2”, “and 0.64” for “and 0.4”, “intragastric administration,” for “intragastric administration”

In assay [2] the test system is Sup-B15. Put plainly: MTT growth inhibition, Sup-B15 cells, 72 h. It is filed as cell-based, human. The procedure: 5000 well-grown leukemia cells or normal human blood cells were taken and seeded into wells of a 96-well cell culture plate. The medium was 1640 cell medium containing 10% fetal bovine serum. 14-D-Valine-TPL with different concentrations was added, and after being uniformly mixed, the plate was placed in a carbon dioxide (5% CO2) cell incubator, and incubated at 37° C. for 72 hours. The concentration of live cells was then determined using the MTT assay. In this experiment, the cell viability in the control group (without the compound treatment) was set to be 100%, and the cell viability (%) after the action of the compound the half maximal growth inhibitory concentration of leukemia cells at 72 hours (IC50 value at 72 hours) and the therapeutic window index were calculated. Therapeutic window index=IC50 value of normal blood cells/IC50 value of leukemia cells. […] A larger therapeutic window indicates a better selectivity of the compound for tumor cells.
(§2) 5000 well-grown leukemia cells were taken and seeded into wells of a 96-well cell culture plate. The medium was 1640 cell medium containing 10% fetal bovine serum. 14-D-Valine-TPL with different concentrations was added, and after being uniformly mixed, the plate was placed in a carbon dioxide (5% CO2) cell incubator, and incubated at 37° C. for 72 hours. The concentration of live cells was then determined using the MTT assay. In this experiment, the cell viability in the control group (without the compound treatment) was set to be 100%, and the cell viability (%) after the action of the compound and the half maximal growth inhibitory concentration of leukemia cells at 72 hours (IC50 value at 72 hours) were calculated.
as §2, with “well-grown lymphocytes” for “well-grown leukemia cells”

For assay [3], the system named is c-myc. As to the kind of experiment: Immunoblot of c-myc level in K562 cells, 48 h. The format is cell-based, human. The following applies: 80 nM. The procedure:
Well-grown leukemia cells were taken and seeded into wells of a 6-well cell culture plate, with a density of 1×10^6/ml. The medium was 1640 cell medium containing 10% fetal bovine serum. 14-D-Valine-TPL with different concentrations was added, and after being uniformly mixed, the plate was placed in a carbon dioxide (5% CO2) cell incubator, and incubated at 37° C. for 48 hours. Cellular proteins were then extracted, and the immunoblot technique was used to detect the expression level of c-myc.
(In general: A western blot detects proteins with antibodies after separation by electrophoresis.)

Assay [4] concerns human acute monocytic leukemia THP-1 cells. Put plainly: THP-1 subcutaneous xenograft in NOD/SCID mice. The format is in vivo. Conditions: for Tumor weight: THP-1, individual mice, end of experiment. The procedure:
as §1

Assay [5] concerns HL-60. Put plainly: MTT growth inhibition, HL-60 cells, 72 h. The format is cell-based. The following applies: Homo sapiens, HL-60, MTT. As for the experimental part:
as §2

Setting [6] is: trifluoroacetate 0.2 mg/kg intragastric 2 times a day, 14 days, listed as DV.
Setting [7] is: trifluoroacetate 0.4 mg/kg intragastric 2 times a day, 14 days.
The mark [8] stands for this setting: dose of 0.4 mg per kilogram of the body weight.

The values that follow come from US10238623B2, “C14-hydroxyl esterified amino acid derivative of triptolide, and preparation method and use thereof” (HANGZHOU WEBEN PHARMACEUTICALS INC, priority 2015, dated 2019).

Values joined by “and” are separate entries in the source; they are usually repeats but may differ in a detail not shown here. Equal values may be shown once.

`CC(C)[C@@H](N)C(=O)O[C@@H]1[C@@]2(C(C)C)O[C@H]2[C@@H]2O[C@]23[C@]12O[C@H]2C[C@H]1C2=C(CC[C@@]13C)C(=O)OC2` [14-D-Valine-TPL, 14-Dextro-Valine-Triptolide]: in assay [1] (KG-1a xenograft, intragastric 2 times a day, 14 days, dose-dependent effect), the “growth of KG-1a in mice in vivo (in words)” value is given as “significantly inhibit the growth”. In addition, the Tumor weight was 0.42 g and 1.49 g and 0.06 g and 0.98 g and 0.2 g and 0.5 g in assay [1] (setting [6]); 0 g in assay [1] (setting [7]); 0 g (3×) and 0.21 g and 0.06 g and 0.28 g in assay [4] (setting [6]); 0 g in assay [4] (setting [7]). The “regression of KG-1a xenograft tumors” value in assay [1] (setting [8]) was “complete regression”. Further, the concentration for half-maximal inhibition (IC50) in assay [2] (Homo sapiens, SUP-B15, 72 h) worked out at 20.7 nM; in assay [5], 65.8 nM. The Therapeutic window in assay [2] (IC50 of normal blood cells/IC50 of Sup-B15) was found to be 9.73. Further, in assay [3], the “level of c-myc (immunoblot)” value was “significantly inhibited”. Moreover, the “growth of THP-1 in mice in vivo (in words)” value in assay [4] (THP-1 xenograft, intragastric 2 times a day, 14 days, dose-dependent effect) is recorded as “significantly inhibit the growth”. In assay [4] (setting [8]), the “regression of THP-1 xenograft tumors” value is “complete regression”.

Broadly, the IC50 is the midpoint of a concentration-inhibition curve.
